Assay results: the NIST ThermoML archive (doi:10.1021/je600554h)

Assay: xn = mol fraction of the nth substance listed
Conditions: Liquid; for viscosity: 100 kPa, Capillary tube (Ostwald / Ubbelohde) method; for mass density: 1000 kPa, Vibrating tube method

COC(C)(C)C [2-methoxy-2-methylpropane] + CCCCCCC
Conditions	mass density [kg/m3]	viscosity [mPa·s]
273.15 K, x1 = 0.1004	–	0.515
273.15 K, x1 = 0.1042	705.19	–
273.15 K, x1 = 0.1998	–	0.507
273.15 K, x1 = 0.2146	710.4	–
273.15 K, x1 = 0.3008	–	0.494
273.15 K, x1 = 0.3024	714.67	–
273.15 K, x1 = 0.3982	719.73	–
273.15 K, x1 = 0.4024	–	0.485
273.15 K, x1 = 0.4996	725.44	–
273.15 K, x1 = 0.5007	–	0.476
273.15 K, x1 = 0.5875	730.85	–
273.15 K, x1 = 0.5989	–	0.468
273.15 K, x1 = 0.6981	–	0.462
273.15 K, x1 = 0.6985	738.08	–
273.15 K, x1 = 0.7887	–	0.456
273.15 K, x1 = 0.794	744.8	–
273.15 K, x1 = 0.889	752	–
273.15 K, x1 = 0.898	–	0.448
278.15 K, x1 = 0.1004	–	0.484
278.15 K, x1 = 0.1042	700.96	–
278.15 K, x1 = 0.1998	–	0.474
278.15 K, x1 = 0.2146	706.09	–
278.15 K, x1 = 0.3008	–	0.464
278.15 K, x1 = 0.3024	710.3	–
278.15 K, x1 = 0.3982	715.27	–
278.15 K, x1 = 0.4024	–	0.456
278.15 K, x1 = 0.4996	720.9	–
278.15 K, x1 = 0.5007	–	0.448
278.15 K, x1 = 0.5875	726.22	–
278.15 K, x1 = 0.5989	–	0.44
278.15 K, x1 = 0.6981	–	0.433
278.15 K, x1 = 0.6985	733.34	–
278.15 K, x1 = 0.7887	–	0.427
278.15 K, x1 = 0.794	739.96	–
278.15 K, x1 = 0.889	747.05	–
278.15 K, x1 = 0.898	–	0.421
283.15 K, x1 = 0.1004	–	0.455
283.15 K, x1 = 0.1042	696.72	–
283.15 K, x1 = 0.1998	–	0.446
283.15 K, x1 = 0.2146	701.76	–
283.15 K, x1 = 0.3008	–	0.437
283.15 K, x1 = 0.3024	705.9	–
283.15 K, x1 = 0.3982	710.79	–
283.15 K, x1 = 0.4024	–	0.429
283.15 K, x1 = 0.4996	716.32	–
283.15 K, x1 = 0.5007	–	0.422
283.15 K, x1 = 0.5875	721.55	–
283.15 K, x1 = 0.5989	–	0.414
283.15 K, x1 = 0.6981	–	0.408
283.15 K, x1 = 0.6985	728.56	–
283.15 K, x1 = 0.7887	–	0.403
283.15 K, x1 = 0.794	735.08	–
283.15 K, x1 = 0.889	742.07	–
283.15 K, x1 = 0.898	–	0.397
288.15 K, x1 = 0.1004	–	0.429
288.15 K, x1 = 0.1042	692.45	–
288.15 K, x1 = 0.1998	–	0.421
288.15 K, x1 = 0.2146	697.4	–
288.15 K, x1 = 0.3008	–	0.413
288.15 K, x1 = 0.3024	701.47	–
288.15 K, x1 = 0.3982	706.28	–
288.15 K, x1 = 0.4024	–	0.405
288.15 K, x1 = 0.4996	711.72	–
288.15 K, x1 = 0.5007	–	0.398
288.15 K, x1 = 0.5875	716.86	–
288.15 K, x1 = 0.5989	–	0.391
288.15 K, x1 = 0.6981	–	0.385
288.15 K, x1 = 0.6985	723.76	–
288.15 K, x1 = 0.7887	–	0.38
288.15 K, x1 = 0.794	730.17	–
288.15 K, x1 = 0.889	737.04	–
288.15 K, x1 = 0.898	–	0.375
293.15 K, x1 = 0.1004	–	0.406
293.15 K, x1 = 0.1998	–	0.398
293.15 K, x1 = 0.3008	–	0.39
293.15 K, x1 = 0.4024	–	0.383
293.15 K, x1 = 0.5007	–	0.376
